13 compounds from publication PMC12519461 (ACS Infectious Diseases, 2025) can be followed below.

Where two headings read alike, the source gives them in different places. Where only a bound is given, the exact number is not on record here.

Data set [1] in a line: Cytotoxicity in HaCat cells (MTT, 72 h). The data set is classed as cell-based. The settings on record: human, from 500 μM. As to the method: Cytotoxicity was assessed using the MTT assay. After 72 h, MTT solution was added, followed by 3 h of incubation. Absorbance was measured at 595 nm using an Epoch Microplate Spectrophotometer (BioTek Instruments, Winooski, VT, USA). Assays were performed in triplicate and repeated three times.

The nature of another data set: in vitro. Format: cell-based. The conditions noted are these: L4 larvae, up to 1000 μM, read-out: C. elegans LC50. As to the method: Synchronized fourth-stage (L4) C. elegans larvae were distributed into 96-well plates containing M9 buffer (60 larvae/well). […] After 24 h incubation at 21 °C, larval survival was determined by motility: larvae unresponsive to gentle mechanical stimulation were classified as nonviable. […] Assays were performed in triplicate and repeated three times.

For the next data set, the system named is A. cantonensis L1 larvae. As to the kind of experiment: Anthelmintic activity against A. cantonensis first-stage larvae (motility/viability, 24 h). Format: cell-based, Angiostrongylus cantonensis. The settings on record: for EC50: 24 h, read-out: A. cantonensis EC50 (μM ± SEM) L1; for activity against the larvae (in words): A. cantonensis larvae in vitro. As to the method: (§1) Larvae were washed three times in RPMI 1640 medium supplemented with 100 U/mL penicillin and 100 μg/mL streptomycin. Approximately 50 larvae were allocated into individual wells of a 96-well plate containing 200 μL of final volume of RPMI medium. […] Approximately 50 larvae were transferred to each well of a 96-well plate containing RPMI medium. […] Larval viability was monitored at 0 and 24 h post-treatment. […] Assays were performed in triplicate and repeated three times.

For a further data set, the system named is A. cantonensis L3 larvae. The data set can be described thus: Anthelmintic activity against A. cantonensis infective third-stage larvae (motility/viability, 24 h). The settings on record: in vitro, 21 °C, read-out: A. cantonensis EC50 (μM ± SEM) L3. Format: cell-based, Angiostrongylus cantonensis. The procedure: as §1
The mark [2] stands for this setting: Angiostrongylus cantonensis, first-stage larvae (L1), in vitro, 21 °C.
The mark [3] stands for this setting: first-stage larvae (L1), in vitro, 21 °C.

Take `COc1cc(/C=C/C(=O)N2CCN(C(c3ccccc3)c3ccccc3)CC2)ccc1O` [compound 3d, (E)-1-(4-Benzhydrylpiperazin-1-yl)-3-(4-hydroxy-3-methoxy-phenyl)prop-2-en-1-one]: in data set [1] (HaCat cells), the CC50 at 72 h is more than 500 µM. Moreover, in the data set “in vitro”, the LC50 at 24 h is more than 1000 µM. Besides, the EC50 in the data set on A. cantonensis L1 larvae (setting [2]) is more than 100 µM.
For `C(=C\c1ccccc1)/CN1CCN(Cc2ccccc2)CC1` [compound 1a, 1-Benzyl-4-[(E)-cinnamyl]piperazine], the CC50 at 72 h in data set [1] (HaCat cells) is more than 500 µM. For the same compound, the LC50 at 24 h in the data set “in vitro” was more than 1000 µM. Moreover, the “activity against the larvae (in words)” value with A. cantonensis L1 larvae is reported as “no appreciable activity”. In addition, the EC50 with A. cantonensis L1 larvae (setting [2]) is more than 100 µM.
With `COc1ccc(/C=C/CN2CCN(C(c3ccccc3)c3ccc(Cl)cc3)CC2)cc1` (stereo not shown) [compound 2b, 1-[(4-Chlorophenyl)-phenyl-methyl]-4-[(E)-3-(4-methoxyphenyl)allyl]piperazine], the CC50 at 72 h in data set [1] (HaCat cells) was more than 500 µM. Further, the LC50 at 24 h in the data set “in vitro” was more than 1000 µM. Also, the concentration for a half-maximal effect (EC50) with A. cantonensis L1 larvae (setting [2]) was 8.2 to 9.3 µM; with A. cantonensis L1 larvae (setting [3]), 9.3 ± 0.9 µM; in the data set on A. cantonensis L3 larvae (Angiostrongylus cantonensis), 8.2 to 9.3 µM; in the data set with A. cantonensis L3 larvae, 8.8 ± 1.2 µM.
For the compound `Clc1ccc(CN2CCN(C/C=C/c3ccccc3)CC2)cc1` [compound 2a, 1-[(4-Chlorophenyl)methyl]-4-[(E)-cinnamyl]piperazine], the CC50 at 72 h in data set [1] (HaCat cells) is more than 500 µM. In addition, in the data set “in vitro”, the LC50 at 24 h was more than 1000 µM. Moreover, the “activity against the larvae (in words)” value with A. cantonensis L1 larvae is reported as “no appreciable activity”. In addition, in the data set with A. cantonensis L1 larvae (setting [2]), the EC50 was more than 100 µM.
In data set [1] (HaCat cells), `O=C(/C=C/c1ccc(O)c(O)c1)N1CCN(C(c2ccccc2)c2ccccc2)CC1` [compound 3e, (E)-1-(4-Benzhydrylpiperazin-1-yl)-3-(3,4-dihydroxyphenyl)prop-2-en-1-one] registered a CC50 at 72 h of more than 500 µM. The LC50 at 24 h in the data set “in vitro” was more than 1000 µM. In addition, in the data set on A. cantonensis L1 larvae (setting [2]), the EC50 was more than 100 µM.
`COc1ccc(/C=C/CN2CCN(C(c3ccccc3)c3ccccc3)CC2)cc1` [compound 1b, 1-Benzhydryl-4-[(E)-3-(4-methoxyphenyl)allyl]piperazine] had a cytotoxic concentration (CC50) at 72 h in data set [1] (HaCat cells) of more than 500 µM. Further, the LC50 at 24 h in “in vitro” was more than 1000 µM. Further, the half-maximal effective concentration (EC50) is 8.2 to 9.3 µM in the data set on A. cantonensis L1 larvae (setting [2]), 8.2 ± 1.2 µM in the data set on A. cantonensis L1 larvae (setting [3]), 8.2 to 9.3 µM in the data set with A. cantonensis L3 larvae (Angiostrongylus cantonensis) and 8.7 ± 0.9 µM in the data set on A. cantonensis L3 larvae.
In the case of `C(=C\c1ccccc1)/CN1CCN(C(c2ccccc2)c2ccccc2)CC1` [compound 1, cinnarizine, reference compound], in the data set “in vitro”, the LC50 at 24 h was more than 1000 µM.
For `O=C(/C=C/c1ccccc1)N1CCN(Cc2ccccc2)CC1` [compound 3a, (E)-1-(4-Benzylpiperazin-1-yl)-3-phenyl-prop-2-en-1-one], the CC50 at 72 h in data set [1] (HaCat cells) was more than 500 µM. In “in vitro”, the LC50 at 24 h was more than 1000 µM. In addition, the EC50 with A. cantonensis L1 larvae (setting [2]) came to 8.2 µM; with A. cantonensis L1 larvae (setting [3]), 8.7 ± 1.1 µM; in the data set with A. cantonensis L3 larvae (Angiostrongylus cantonensis), 18.1 ± 1.5 µM.
With `O=C(/C=C/c1ccccc1)N1CCN(C(c2ccccc2)c2ccccc2)CC1` [compound 3, (E)-1-(4-Benzhydrylpiperazin-1-yl)-3-phenyl-prop-2-en-1-one], in data set [1] (HaCat cells), the CC50 at 72 h is more than 500 µM. Also, the LC50 at 24 h in “in vitro” is more than 1000 µM. Moreover, the “activity against the larvae (in words)” value with A. cantonensis L1 larvae is given as “no activity”. In the data set on A. cantonensis L1 larvae (setting [2]), the EC50 was more than 100 µM.
`Clc1ccc(C(c2ccccc2)N2CCN(C/C=C/c3ccccc3)CC2)cc1` (stereo not shown) [compound 2, 1-[(4-Chlorophenyl)-phenyl-methyl]-4-[(E)-cinnamyl]piperazine, reference compound]: the CC50 at 72 h in data set [1] (HaCat cells) was more than 500 µM. In “in vitro”, the LC50 at 24 h is more than 1000 µM. Besides, the EC50 in the data set on A. cantonensis L1 larvae (setting [2]) stood at 4.2 ± 1.1 µM; in the data set with A. cantonensis L3 larvae (Angiostrongylus cantonensis) it was 8.6 ± 1.1 µM.
Take `COc1ccc(/C=C/C(=O)N2CCN(C(c3ccccc3)c3ccccc3)CC2)cc1` [compound 3b, (E)-1-(4-Benzhydrylpiperazin-1-yl)-3-(4-methoxyphenyl)prop-2-en-1-one]: the CC50 at 72 h in data set [1] (HaCat cells) was more than 500 µM. For the same compound, the LC50 at 24 h in the data set “in vitro” was more than 1000 µM. For the same compound, in the data set on A. cantonensis L1 larvae (setting [2]), the half-maximal effective concentration (EC50) is more than 100 µM.
Taken in the same sequence, the figures for `O=C(/C=C/c1ccc(O)cc1)N1CCN(C(c2ccccc2)c2ccccc2)CC1` [compound 3c, (E)-1-(4-Benzhydrylpiperazin-1-yl)-3-(4-hydroxyphenyl)prop-2-en-1-one] were more than 500 µM, more than 1000 µM and more than 100 µM.
In data set [1], `CCCSc1ccc2nc(NC(=O)OC)[nH]c2c1` [albendazole, reference compound] gave a CC50 at 72 h of more than 500 µM. In addition, the LC50 at 24 h in “in vitro” was 14.8 ± 1.5 µM. Besides, the EC50 in the data set with A. cantonensis L1 larvae (Angiostrongylus cantonensis) stood at 14.2 ± 1.1 µM.

The CC50 is the concentration that lowers cell viability or growth by half. As usually defined, the LC50 is the concentration lethal to half of the exposed cells or organisms. In general, EC50 refers to the midpoint of the concentration-response curve.
